Data published in PMC9021288 (Nature Communications, 2022).

test system: P. falciparum NF54 asexual blood-stage parasites; test: 72-h asexual blood-stage replication assay (SYBR Green); format: cell-based, Plasmodium falciparum; conditions: asexual blood stages NF54 parasites; read-out: IC50
Protocol: Replication assays were performed using a SYBR Green method as described previously. Briefly, asynchronous parasites were diluted to 0.83% parasitemia, 3% hematocrit in 30 µl medium, and added to 30 µl of diluted compounds in medium (0.1% DMSO final concentration) in black 384-wells plates. After a 72-h incubation, 30 µl of SYBR Green diluted in lysis buffer was added according to the manufacturer’s protocol (Life Technologies). Fluorescence intensity was measured on a BioTek Synergy 2 Plate Reader after 1-h incubation and was normalized to a DMSO control (100% growth) and DHA- or epoxomicin-treatment (no growth). […] Parasite survival was assessed by flow cytometry on an Accuri C6 (BD Biosciences) with BD C6 Plus software using SYBR Green and MitoTracker Deep Red FM (Life Technologies) as nuclear stain and vital dye, respectively, and data were analyzed using FlowJo (10.5.0). […] Luminescence was measured after 72 h using the Renilla-Glo(R) Luciferase Assay System (Promega E2750) and the GlomAX® Discover Multimode Microplate Reader (Promega). The luminescence values were normalized to DMSO vehicle (100% growth) and 200 nM chloroquine-treated (no growth) samples as controls.
Dose-response assays were analyzed by a nonlinear regression using a four-parameter model and the least squares method to find the best fit. One-way Analysis of variance (ANOVA) was performed using the Bonferroni’s Multiple Comparison Test. For the majority of experiments, 2-4 biological replicates were performed. Typically, 2 replicates were performed for screening activities, and a minimum of 3 replicates are performed for other experiments unless stated otherwise.

Row | Structure (SMILES) | IC50
1 | Cc1ccccc1C(=O)N[C@@H](C)CNC(=O)[C@H](O)C(C)(C)CO [MMV1542005] | > 10000 nM
2 | C[C@@H](CNC(=O)[C@@H](O)C(C)(C)CO)NC(=O)CCc1ccccc1F [MMV884787] | 235 nM
3 | C[C@@H](CNC(=O)[C@H](O)C(C)(C)CO)NC(=O)c1cccc(F)n1 [MMV892814] | > 10000 nM
4 | Cc1cc(C(=O)N[C@@H](C)CNC(=O)[C@H](O)C(C)(C)CO)c(F)cc1F [MMV893115] | 66 nM
5 | C[C@@H](CNC(=O)[C@H](O)C(C)(C)CO)NC(=O)c1cccc(Cl)c1F [MMV977411] | 12 nM
6 | C[C@@H](CNC(=O)[C@H](O)C(C)(C)CO)NC(=O)c1cccs1 [MMV893344] | 18.2 nM
7 | Cc1cccc(C(=O)N[C@@H](C)CNC(=O)[C@H](O)C(C)(C)CO)c1 [MMV1542099] | 22 nM
8 | C[C@@H](CNC(=O)[C@H](O)C(C)(C)CO)NC(=O)c1ccccc1C(F)(F)F [MMV892613] | > 10000 nM
9 | C[C@@H](CNC(=O)[C@H](O)C(C)(C)CO)NC(=O)c1cccc(C(F)(F)F)c1 [MMV892614] | 143 nM
10 | C[C@@H](CNC(=O)[C@H](O)C(C)(C)CO)c1nnc(CCc2ccccc2F)[nH]1 [MMV884788] | 554 nM
11 | C[C@H](CNC(=O)[C@H](O)C(C)(C)CO)NC(=O)CCc1ccccc1F [MMV689260] | 210 nM
12 | C[C@@H](CNC(=O)[C@H](O)C(C)(C)CO)NC(=O)c1cccc(Cl)c1 [MMV892808] | 2.3 nM
13 | C[C@@H](CNC(=O)[C@H](O)C(C)(C)CO)NC(=O)c1cc[nH]c1 [MMV893376] | 1800 nM
14 | C[C@@H](CNC(=O)[C@H](O)C(C)(C)CO)NC(=O)c1cc(Cl)c(Cl)cc1F [MMV893655] | 19.7 nM
15 | CC(C)(CNC(=O)[C@H](O)C(C)(C)CO)NC(=O)CCc1ccccc1F [MMV689455] | 1190 nM
16 | C[C@@H](CNC(=O)[C@H](O)C(C)(C)CO)NC(=O)c1ccc(Cl)c(F)c1 [MMV1576725] | 56 nM
17 | C[C@@H](CNC(=O)[C@H](O)C(C)(C)CO)NC(=O)c1ccc(C#N)cc1 [MMV884961] | 535 nM
18 | C[C@@H](CNC(=O)[C@H](O)C(C)(C)CO)NC(=O)c1cccc(S(C)(=O)=O)c1 [MMV884969] | > 10000 nM
19 | CC[C@@H](CNC(=O)[C@H](O)C(C)(C)CO)NC(=O)CCc1ccccc1F [MMV692676] | 122 nM
20 | C[C@@H](CNC(=O)[C@H](O)C(C)(C)CO)NC(=O)c1ccccc1F [MMV154200] | 41 nM
21 | C[C@@H](CNC(=O)[C@H](O)C(C)(C)CO)NC(=O)c1c(F)cccc1F [MMV693185] | 478 nM
22 | C[C@@H](CNC(=O)[C@H](O)C(C)(C)CO)NC(=O)c1ccc[nH]1 [MMV893345] | > 10000 nM
23 | C[C@@H](CNC(=O)[C@H](O)C(C)(C)CO)NC(=O)c1csc2ccccc12 [MMV893338] | 195 nM
24 | Cc1ccc(C(=O)N[C@@H](C)CNC(=O)[C@H](O)C(C)(C)CO)cc1 [MMV1542100] | 85 nM
25 | C[C@@H](CNC(=O)[C@H](O)C(C)(C)CO)NC(=O)c1ccc(F)c(C#N)c1 [MMV977409] | 84 nM
26 | C[C@@H](CNC(=O)[C@H](O)C(C)(C)CO)NC(=O)c1ccsc1 [MMV893340] | 14.6 nM
27 | C[C@@H](CNC(=O)[C@H](O)C(C)(C)CO)NC(=O)c1cccc(F)c1F [MMV1576723] | 32.7 nM

Row | Structure (SMILES) | IC50
28 | C[C@@H](CNC(=O)[C@H](O)C(C)(C)CO)NS(=O)(=O)CCc1ccccc1 [MMV692748] | > 10000 nM
29 | C[C@@H](CNC(=O)[C@H](O)C(C)(C)CO)NC(=O)c1c[nH]c2ccccc12 [MMV893375] | 41 nM
30 | C[C@@H](CNC(=O)[C@H](O)C(C)(C)CO)NC(=O)c1ccc(F)c(Cl)c1 [MMV977407] | 3.4 nM
31 | C[C@@H](CNC(=O)[C@H](O)C(C)(C)CO)NC(=O)c1cc(Cl)ccc1F [MMV1576728] | 2.6 nM
32 | C[C@@H](CNC(=O)[C@H](O)C(C)(C)CO)NC(=O)c1cc2ccccc2s1 [MMV893336] | 19.9 nM
33 | CC(CNC(=O)C(C)(O)C(C)(C)CO)NC(=O)CCc1ccccc1F (mixture of isomers) [MMV1545785] | 1000 nM
34 | C[C@@H](CNC(=O)[C@H](O)C(C)(C)CO)NC(=O)c1coc2ccccc12 [MMV893337] | 3.9 nM
35 | C[C@@H](CNC(=O)[C@H](O)C(C)(C)CO)NC(=O)c1ccc(F)c(F)c1 [MMV1576731] | 4.6 nM
36 | C[C@@H](CNC(=O)[C@H](O)C(C)(C)CO)NC(=O)c1ccc(F)cc1 [MMV1542002] | 82 nM
37 | C[C@@H](CNC(=O)[C@H](O)C(C)(C)CO)NC(=O)c1cc2ccccc2o1 [MMV893335] | 12.5 nM
38 | C[C@@H](CNC(=O)[C@H](O)C(C)(C)CO)NC(=O)c1ccccc1Cl [MMV892807] | > 10000 nM
39 | C[C@@H](CNC(=O)[C@H](O)C(C)(C)CO)NC(=O)c1cccc(C#N)c1F [MMV977410] | 19 nM
40 | C[C@@H](CNC(=O)[C@H](O)C(C)(C)CO)NC(=O)c1ccc(C(F)(F)F)cc1 [MMV892612] | 132 nM
41 | C[C@@H](CNC(=O)[C@H](O)C(C)(C)CO)NC(=O)c1cc2ccccc2[nH]1 [MMV893121] | 53 nM
42 | COc1ccc(C(=O)N[C@@H](C)CNC(=O)[C@H](O)C(C)(C)CO)cc1 [MMV892810] | 344 nM
43 | C[C@@H](CNC(=O)C(=O)C(C)(C)CO)NC(=O)CCc1ccccc1F [MMV1545786] | 1000 nM
44 | C[C@@H](CNC(=O)[C@H](O)C(C)(C)CNS(C)(=O)=O)NC(=O)CCc1ccccc1F [MMV1545779] | > 1000 nM
45 | C[C@@H](CNC(=O)[C@H](O)C(C)(C)CO)NC(=O)c1cc(F)ccc1F [MMV1576724] | 7 nM
46 | COc1cccc(C(=O)N[C@@H](C)CNC(=O)[C@H](O)C(C)(C)CO)c1 [MMV892811] | 32 nM
47 | C[C@@H](CNC(=O)[C@H](O)C(C)(C)CO)NC(=O)c1ccc(Cl)cc1 [MMV892809] | 103 nM
48 | C[C@@H](CNC(=O)[C@H](O)C(C)(C)CO)NC(=O)c1cccc(N(C)C)c1 [MMV884970] | > 10000 nM
49 | CC(C)(CNC(=O)CCc1ccccc1F)NC(=O)[C@H](O)C(C)(C)CO [MMV689261] | > 10000 nM
50 | C[C@@H](CNC(=O)[C@H](O)C(C)(C)CO)NC(=O)c1ccoc1 [MMV893339] | 42 nM
51 | CCC(CC)(CO)[C@@H](O)C(=O)NC[C@H](C)NC(=O)CCc1ccccc1F [MMV884964] | > 1000 nM
52 | C[C@@H](CNC(=O)[C@H](O)C(C)(C)CO)NC(=O)c1cc(Cl)c(F)cc1F [MMV692009] | 2.3 nM
53 | COc1ccccc1C(=O)N[C@@H](C)CNC(=O)[C@H](O)C(C)(C)CO [MMV892812] | > 10000 nM
54 | C[C@H](CNC(=O)[C@@H](O)C(C)(C)CO)NC(=O)CCc1ccccc1F [MMV884968] | > 1000 nM

test system: TA98, TA100, TA102, TA1535, TA1537; test: not given; conditions: TA98, -S-9, 5 ug/plate, positive control
Protocol: Safety studies were performed by commercial services using their standard protocols. […] Genotoxicity was investigated using the Ames test (Bacterial Reverse Mutation Assay) (Covance Laboratories Ltd, North Yorkshire, England). In vitro mammalian cell micronucleus screening assay was studied in human peripheral blood lymphocytes (BioReliance Corporation, Rockville, USA). Cardiotoxicity was determined against the hERG channel in an automated patch clamp assay using the Qpatch or against the hNaV 1.5, hKV 1.5 and hCaV 1.2 using a manual patch-clamp technique (Metrion Biosciences, Cambridge, UK). Cytotoxicity in human and rat primary hepatocytes was assessed using the CellTiter-Blue assay performed by commercial services (KaLy-Cell). The viability of HepG2 cells was monitored through the addition of 1 mM resazurin. Following 6 h incubation, the relative amount of reduced resazurin was detected in a fluorimeter and compared to the assay controls (vehicle: 0.1% DMSO and positive control: 10 µM puromycin).

Row | Structure (SMILES) | Fold Increase | Mean (Revertant Numbers Per Plate)
55 | O=[N+]([O-])c1ccc2c(c1)Cc1ccccc1-2 [Compound 2NF] | 49.1 | 1375.7

same assay, conditions: TA100, +S-9, 5 ug/plate, positive control

Row | Structure (SMILES) | Fold Increase | Mean (Revertant Numbers Per Plate)
56 | Nc1ccc2cc3ccccc3cc2c1 [AAN] | 21.6 | 2606

same assay, conditions: TA100, -S-9, 2 ug/plate, positive control

Row | Structure (SMILES) | Fold Increase | Mean (Revertant Numbers Per Plate)
57 | [N-]=[N+]=[N-].[Na+] [NaN3] | 9.7 | 845

same assay, conditions: TA102, +S-9, 20 ug/plate, positive control

Row | Structure (SMILES) | Fold Increase | Mean (Revertant Numbers Per Plate)
58 | Nc1ccc2cc3ccccc3cc2c1 [AAN] | 11 | 2462

same assay, conditions: TA102, -S-9, 0.2 ug/plate, positive control

Row | Structure (SMILES) | Fold Increase
59 | CO[C@@]12[C@H](COC(N)=O)C3=C(C(=O)C(C)=C(N)C3=O)N1C[C@@H]1N[C@@H]12 [MMC] | 3.3

same assay, conditions: TA1535, +S-9, 5 ug/plate, positive control

Row | Structure (SMILES) | Fold Increase | Mean (Revertant Numbers Per Plate)
60 | Nc1ccc2cc3ccccc3cc2c1 [AAN] | 7.5 | 173.3

same assay, conditions: TA1535, -S-9, 2 ug/plate, positive control

Row | Structure (SMILES) | Fold Increase | Mean (Revertant Numbers Per Plate)
61 | [N-]=[N+]=[N-].[Na+] [NaN3] | 26.6 | 672.7

same assay, conditions: TA1537, +S-9, 5 ug/plate, positive control

Row | Structure (SMILES) | Fold Increase | Mean (Revertant Numbers Per Plate)
62 | Nc1ccc2cc3ccccc3cc2c1 [AAN] | 39.7 | 277.7

same assay, conditions: TA1537, -S-9, 50 ug/plate, positive control

Row | Structure (SMILES) | Fold Increase | Mean (Revertant Numbers Per Plate)
63 | Nc1c2ccccc2nc2ccccc12 [AAC] | 54.9 | 384.3
